Experimental data as given in US20210352899A1, “COMPOSITIONS COMPRISING PYRIDINE CARBOXYLATE HERBICIDES AND FATTY ACID AND LIPID SYNTHESIS INHIBITOR HERBICIDES” (Corteva Agriscience LLC, priority 2018, published 2021).

Assays:
Type in all cases: in vivo
[1] = system: Polygonum convolvulus (wild buckwheat); assay: Greenhouse postemergence herbicidal effect, POLCO
Text: (§1) Seeds of the desired test plant species were planted in a 90:10% v/v (volume/volume) mixture of PRO-MIX® BX (Premier Tech Horticulture, Quakertown, Pa., USA) and PROFILE® GREENS GRADE™ (Profile Products LLC, Buffalo Grove, Ill., USA) planting mixture, which typically has a pH of 5.2 to 6.2 and an organic matter content of at least 50 percent, in plastic pots with a surface area of 103.2 square centimeters (cm^2). In some aspects, to help ensure good germination and healthy plants, a fungicide treatment and/or other chemical or physical treatment was applied. The plants were grown for 7-36 days (d) in a greenhouse with an approximate 14-hour (h) photoperiod which was maintained at about 23° C. during the day and 22° C. during the night. Nutrients and water were added on a regular basis and supplemental lighting was provided with overhead metal halide 1000-Watt lamps as necessary. The plants were employed for testing when they reached the second or third true leaf stage.
(§2) Emulsifiable concentrates of each pyridine carboxylate herbicide (Compound A or Compound B) were prepared at 100 grams acid equivalent per liter (g ae/L). The emulsifiable concentrates also included a safener, cloquintocet-mexyl, at 120 grams active ingredient per liter (g ai/L). An aliquot of each emulsifiable concentrate was placed in a 25 mL glass vial and diluted with an aqueous mixture of 1.25% (v/v) ACTIROB® B esterified rapeseed oil (Bayer Crop Science, Research Triangle Park, N.C., USA) or MSO® Concentrate with LECI-TECH® methylated soybean oil (Loveland Products, Loveland, Colo., USA) to obtain concentrated stock solutions at the highest application rate for each herbicide, based upon a 12 milliliter (mL) application volume at a rate of 187 liters per hectare (L/ha). The concentrated stock solutions were further diluted with an aqueous mixture of 1.25% v/v ACTIROB® B or MSO® Concentrate with LECI-TECH® to obtain stock solutions at reduced application rates for each herbicide. Spray solutions of the herbicide combinations (Compound A or Compound B plus the FA/LSI herbicide) were prepared by adding weighed amounts or aliquots of the FA/LSI herbicide to the stock solutions of Compound A or Compound B to form 12-mL spray solutions in two-way combinations.
(§3) The spray solutions were applied to the plant material with an overhead Mandel track sprayer equipped with 8002E nozzles calibrated to deliver 187 L/ha over an application area of 0.503 square meters (m^2) at a spray height of 18 inches (43 centimeters (cm)) above the average plant canopy. Control plants were sprayed in the same manner with the solvent blank. All pyridine carboxylate herbicide (component a) application rates are given as “g ae/ha” and all FA/LSI herbicide (component b) application rates are given as “g ai/ha.”
(§4) The treated plants and control plants were placed in a greenhouse as described above and watered by sub-irrigation to prevent wash-off of the test compounds. After 20-22 d, the condition of the test plants as compared with that of the control plants was determined visually and scored on a scale of 0 to 100 percent where 0 corresponds to no injury and 100 corresponds to complete kill.

[2] = system: Sinapis arvensis (wild mustard); assay: Greenhouse postemergence herbicidal effect, SINAR
Text: as §1, §2, §3, §4

[3] = system: Amaranthus retroflexus (pigweed); assay: Greenhouse postemergence herbicidal effect, AMARE
Text: as §1, §2, §3, §4

[4] = system: Matricaria chamomilla (wild chamomile); assay: Greenhouse postemergence herbicidal effect, MATCH
Text: as §1, §2, §3, §4

[5] = system: Salsola kali (Russian thistle); assay: Greenhouse postemergence herbicidal effect, SASKR
Text: as §1, §2, §3, §4

[6] = system: Brassica napus (spring rape); assay: Greenhouse postemergence herbicidal effect, BRSNN
Text: as §1, §2, §3, §4

Kochia scoparia (kochia) = assay: Greenhouse postemergence herbicidal effect, KCHSC
Text: as §1, §2, §3, §4

[7] = system: Chenopodium album L. (common lambsquarters); assay: Greenhouse postemergence herbicidal effect, CHEAL
Text: as §1, §2, §3, §4

[8] = system: Lolium multiflorum (Italian ryegrass); assay: Greenhouse postemergence herbicidal effect, LOLMU
Text: as §1
(§5) Emulsifiable concentrates of each pyridine carboxylate herbicide (Compound A or Compound B) were prepared at 100 grams acid equivalent per liter (g ae/L). The emulsifiable concentrates also included a safener, cloquintocet-mexyl, at 120 grams active ingredient per liter (g ai/L). […]
as §4

[9] = system: Stellaria media (chickweed); assay: Greenhouse postemergence herbicidal effect, STEME
Text: as §1, §5, §4

[10] = system: Digitaria sanguinalis (large crabgrass); assay: Greenhouse postemergence herbicidal effect, DIGSA
Text: as §1, §5, §4

[11] = system: Triticum aestivum (spring wheat); assay: Greenhouse postemergence crop phytotoxicity, TRZAS
Text: as §1, §2, §3, §4

[12] = system: Cirsium arvense (Canada thistle); assay: Greenhouse postemergence herbicidal effect, CIRAR
Text: as §1, §2, §3, §4

Glycine max (soybean) = assay: Greenhouse postemergence herbicidal effect, GLXMA
Text: as §1, §5, §4

[13] = system: Echinochloa crus-galli (barnyard grass); assay: Greenhouse postemergence herbicidal effect, ECHCG
Text: as §1, §5, §4

[14] = system: Hordeum vulgare (spring barley); assay: Greenhouse postemergence crop phytotoxicity, HORVS
Text: as §1, §2, §3, §4

[15] = system: Setaria faberi (giant foxtail); assay: Greenhouse postemergence herbicidal effect, SETFA
Text: as §1, §5, §4

[16] = system: Viola tricolor (wild pansy); assay: Greenhouse postemergence herbicidal effect, VIOTR
Text: as §1, §5, §4

[17] = Compound A 0, Benfuresate 150 g/ha
[18] = Compound A 7.5 g/ha, Prosulfocarb 0
[19] = Compound A 10 g/ha, Prosulfocarb 0
[20] = Compound A 7.5 g/ha, Benfuresate 0
[21] = Compound A 7.5 g/ha, Thiobencarb 0
[22] = Compound A 10 g/ha, Benfuresate 0
[23] = Compound A 10 g/ha, Thiobencarb 0
[24] = Compound A 7.5 g/ha, Esprocarb 0
[25] = Compound A 10 g/ha, Esprocarb 0
[26] = Compound A 0, Esprocarb 420 g/ha
[27] = Compound A 0, Prosulfocarb 250 g/ha
[28] = Compound A 0, Thiobencarb 1120 g/ha

CCS(=O)(=O)Oc1ccc2c(c1)C(C)(C)CO2 [Benfuresate, benfuresate, reference compound]
% visual injury, Obs [1, 17]: 0% | % visual injury, Obs [2, 17]: 0% | % visual injury, Obs [3, 17]: 10% | % visual injury, Obs [4, 17]: 0% | % visual injury, Obs [5, 17]: 0% | % visual injury, Obs [6, 17]: 5% | % visual injury, Obs (Kochia scoparia (kochia); [17]): 0% | % visual injury, Obs [7, 17]: 0%

N#CCOC(=O)c1nc(-c2ccc3cc[nH]c3c2F)c(F)c(N)c1Cl [Compound A, cyanomethyl 4-amino-3-chloro-5-fluoro-6-(7-fluoro-1H-indol-6-yl)pyridine-2-carboxylate]
% visual injury, Obs [8, 18]: 0% | % visual injury, Obs [8, 19]: 0% | % visual injury, Obs [9, 18]: 100% | % visual injury, Obs [9, 19]: 97% | % visual injury, Obs [1, 20]: 70% | % visual injury, Obs [1, 18]: 75% | % visual injury, Obs [1, 21]: 70% | % visual injury, Obs [1, 22]: 78% | % visual injury, Obs [1, 19]: 70% | % visual injury, Obs [1, 23]: 78% | % visual injury, Obs [10, 18]: 45% | % visual injury, Obs [10, 19]: 25% | % visual injury, Obs [2, 20]: 88% | % visual injury, Obs [2, 24]: 85% | % visual injury, Obs [2, 21]: 88% | % visual injury, Obs [2, 22]: 92% | % visual injury, Obs [2, 25]: 90% | % visual injury, Obs [2, 23]: 92% | % visual injury, Obs [11, 20]: 0% | % visual injury, Obs [11, 24]: 0% | % visual injury, Obs [11, 21]: 0% | % visual injury, Obs [11, 22]: 0% | % visual injury, Obs [11, 25]: 0% | % visual injury, Obs [11, 23]: 0% | % visual injury, Obs [12, 24]: 10% | % visual injury, Obs [12, 18]: 23% | % visual injury, Obs [12, 25]: 23% | % visual injury, Obs [12, 19]: 20% | % visual injury, Obs (Glycine max (soybean); [18]): 93% | % visual injury, Obs (Glycine max (soybean); [19]): 95% | % visual injury, Obs [3, 20]: 100% | % visual injury, Obs [3, 24]: 70% | % visual injury, Obs [3, 21]: 100% | % visual injury, Obs [3, 22]: 100% | % visual injury, Obs [3, 25]: 98% | % visual injury, Obs [3, 23]: 100% | % visual injury, Obs [13, 18]: 73% | % visual injury, Obs [13, 19]: 78% | % visual injury, Obs [4, 20]: 13% | % visual injury, Obs [4, 24]: 0% | % visual injury, Obs [4, 21]: 13% | % visual injury, Obs [4, 22]: 15% | % visual injury, Obs [4, 25]: 33% | % visual injury, Obs [4, 23]: 15% | % visual injury, Obs [5, 20]: 45% | % visual injury, Obs [5, 24]: 38% | % visual injury, Obs [5, 21]: 45% | % visual injury, Obs [5, 22]: 60% | % visual injury, Obs [5, 25]: 63% | % visual injury, Obs [5, 23]: 60% | % visual injury, Obs [6, 20]: 55% | % visual injury, Obs [6, 24]: 55% | % visual injury, Obs [6, 18]: 73% | % visual injury, Obs [6, 21]: 55% | % visual injury, Obs [6, 22]: 60% | % visual injury, Obs [6, 25]: 70% | % visual injury, Obs [6, 19]: 83% | % visual injury, Obs [6, 23]: 60% | % visual injury, Obs [14, 20]: 8% | % visual injury, Obs [14, 24]: 0% | % visual injury, Obs [14, 21]: 8% | % visual injury, Obs [14, 22]: 0% | % visual injury, Obs [14, 25]: 0% | % visual injury, Obs [14, 23]: 0% | % visual injury, Obs [15, 18]: 70% | % visual injury, Obs [15, 19]: 70% | % visual injury, Obs (Kochia scoparia (kochia); [20]): 50% | % visual injury, Obs (Kochia scoparia (kochia); [24]): 50% | % visual injury, Obs (Kochia scoparia (kochia); [18]): 60% | % visual injury, Obs (Kochia scoparia (kochia); [21]): 50% | % visual injury, Obs (Kochia scoparia (kochia); [22]): 58% | % visual injury, Obs (Kochia scoparia (kochia); [25]): 55% | % visual injury, Obs (Kochia scoparia (kochia); [19]): 65% | % visual injury, Obs (Kochia scoparia (kochia); [23]): 58% | % visual injury, Obs [7, 20]: 70% | % visual injury, Obs [7, 24]: 60% | % visual injury, Obs [7, 18]: 97% | % visual injury, Obs [7, 21]: 70% | % visual injury, Obs [7, 22]: 83% | % visual injury, Obs [7, 25]: 90% | % visual injury, Obs [7, 19]: 93% | % visual injury, Obs [7, 23]: 83% | % visual injury, Obs [16, 18]: 10% | % visual injury, Obs [16, 19]: 18%

CCN(C(=O)SCc1ccccc1)C(C)C(C)C (stereo not drawn) [Esprocarb, esprocarb, reference compound]
% visual injury, Obs [2, 26]: 0% | % visual injury, Obs [12, 26]: 0% | % visual injury, Obs [3, 26]: 15% | % visual injury, Obs [4, 26]: 5% | % visual injury, Obs [5, 26]: 0% | % visual injury, Obs [6, 26]: 0% | % visual injury, Obs (Kochia scoparia (kochia); [26]): 0% | % visual injury, Obs [7, 26]: 0%

CCCN(CCC)C(=O)SCc1ccccc1 [Prosulfocarb, prosulfocarb, reference compound]
% visual injury, Obs [8, 27]: 0% | % visual injury, Obs [9, 27]: 0% | % visual injury, Obs [1, 27]: 0% | % visual injury, Obs [10, 27]: 0% | % visual injury, Obs [12, 27]: 0% | % visual injury, Obs (Glycine max (soybean); [27]): 0% | % visual injury, Obs [13, 27]: 0% | % visual injury, Obs [6, 27]: 0% | % visual injury, Obs [15, 27]: 0% | % visual injury, Obs (Kochia scoparia (kochia); [27]): 0% | % visual injury, Obs [7, 27]: 0% | % visual injury, Obs [16, 27]: 0%

CCN(CC)C(=O)SCc1ccc(Cl)cc1 [Thiobencarb, thiobencarb, reference compound]
% visual injury, Obs [1, 28]: 0% | % visual injury, Obs [2, 28]: 5% | % visual injury, Obs [3, 28]: 10% | % visual injury, Obs [4, 28]: 15% | % visual injury, Obs [5, 28]: 0% | % visual injury, Obs [6, 28]: 10% | % visual injury, Obs (Kochia scoparia (kochia); [28]): 0% | % visual injury, Obs [7, 28]: 0%
